Laboratory results: US6156700A, “3-(1,2-Benzisothiazol- and isoxazol-5-yl)-2,4(1H,3H)-pyrimidinedione or thione and 3-(1,2-benzisothiazol- and isoxazol-5-yl)-4(3H)-pyrimidinone or thione herbicidal agents” (American Cyanmid Company, priority 1998, dated 2000)
Values joined by “and” are separate entries in the source; they are usually repeats but may differ in a detail not shown here. Equal values may be shown once.

Assays:
ABUTH [1] = experiment: Preemergence herbicidal evaluation; assay type: in vivo; parameters: scale not given here
GLXMA [2] = experiment: Preemergence herbicidal evaluation; assay type: in vivo
Description: (§1) The preemergence and postemergence herbicidal properties of certain compounds of the present invention are compared with certain compounds disclosed in U.S. Pat. Nos. 5,484,763 and 5,523,278. The evaluations are performed as described in Examples 185 and 186. Data in Tables V and VI are reported by the compound number given in Example 185 for the compounds of this invention or by comparative compound letter for the compounds disclosed in U.S. Pat. Nos. 5,484,763 and 5,523,278.

ORYSAT = experiment: Preemergence herbicidal evaluation; assay type: in vivo, Oryza sativa; parameters: scale not given here
ABUTH [3] = experiment: Postemergence herbicidal evaluation; assay type: in vivo
CHEAL = experiment: Postemergence herbicidal evaluation; assay type: in vivo
ECHCG = experiment: Postemergence herbicidal evaluation; assay type: in vivo
GLXMA [4] = experiment: Postemergence herbicidal evaluation; assay type: in vivo
TRZAWR = experiment: Postemergence herbicidal evaluation; assay type: in vivo
GLXMAW [5] = experiment: Preemergence herbicidal evaluation; assay type: in vivo; parameters: scale not given here; details: 0.1250 kg/ha
IPOHE [6] = experiment: Preemergence herbicidal evaluation; assay type: in vivo; details: 0.1250 kg/ha
Description: as §1

IPOHE [7] = experiment: Postemergence herbicidal evaluation; assay type: in vivo; details: 0.0625-0.0640 kg/ha
GLXMAW [8] = experiment: Postemergence herbicidal evaluation; assay type: in vivo

## Cn1c(C(F)(F)F)cc(=O)n(-c2ccc3snc(-c4ccccc4)c3c2)c1=O [Compound 4, 1-Methyl-3-(3-phenyl-1,2-benzisothiazol-5-yl)-6-(trifluoromethyl)-2,4(1H,3H)-pyrimidinedione]
ABUTH [1]; 0.0313-0.0320 kg/ha
  herbicidal effect rating: 9.0
ABUTH [1]; 0.0620-0.0630 kg/ha
  herbicidal effect rating: 9.0
ABUTH [1]; 0.1250 kg/ha
  herbicidal effect rating: 9.0
ABUTH [1]; 0.2500 kg/ha
  herbicidal effect rating: 9.0
ABUTH [1]; 0.5000 kg/ha
  herbicidal effect rating: 9.0
GLXMA [2]; 0.0313-0.0320 kg/ha
  herbicidal effect rating: 3.0
GLXMA [2]; 0.0620-0.0630 kg/ha
  herbicidal effect rating: 9.0
GLXMA [2]; 0.1250 kg/ha
  herbicidal effect rating: 9.0
GLXMA [2]; 0.2500 kg/ha
  herbicidal effect rating: 7.0
GLXMA [2]; 0.5000 kg/ha
  herbicidal effect rating: 9.0
ORYSAT; 0.0313-0.0320 kg/ha
  herbicidal effect rating: 7.0
ORYSAT; 0.0620-0.0630 kg/ha
  herbicidal effect rating: 7.0
ORYSAT; 0.1250 kg/ha
  herbicidal effect rating: 7.0
ORYSAT; 0.2500 kg/ha
  herbicidal effect rating: 7.0
ORYSAT; 0.5000 kg/ha
  herbicidal effect rating: 7.0
ABUTH [3]; 0.0157-0.0160 kg/ha
  herbicidal effect rating: 9.0
ABUTH [3]; 0.0313-0.0320 kg/ha
  herbicidal effect rating: 9.0
ABUTH [3]; 0.0625-0.0640 kg/ha
  herbicidal effect rating: 9.0
ABUTH [3]; 0.1250 kg/ha
  herbicidal effect rating: 9.0
ABUTH [3]; 0.2500 kg/ha
  herbicidal effect rating: 9.0
ABUTH [3]; 0.5000 kg/ha
  herbicidal effect rating: 9.0
CHEAL; 0.0157-0.0160 kg/ha
  herbicidal effect rating: 9.0
CHEAL; 0.0313-0.0320 kg/ha
  herbicidal effect rating: 9.0
CHEAL; 0.0625-0.0640 kg/ha
  herbicidal effect rating: 9.0
CHEAL; 0.1250 kg/ha
  herbicidal effect rating: 9.0
CHEAL; 0.2500 kg/ha
  herbicidal effect rating: 9.0
CHEAL; 0.5000 kg/ha
  herbicidal effect rating: 9.0
ECHCG; 0.0157-0.0160 kg/ha
  herbicidal effect rating: 2.0
ECHCG; 0.0313-0.0320 kg/ha
  herbicidal effect rating: 5.0
ECHCG; 0.0625-0.0640 kg/ha
  herbicidal effect rating: 7.0
ECHCG; 0.1250 kg/ha
  herbicidal effect rating: 8.0
ECHCG; 0.2500 kg/ha
  herbicidal effect rating: 8.0
ECHCG; 0.5000 kg/ha
  herbicidal effect rating: 9.0
GLXMA [4]; 0.0157-0.0160 kg/ha
  herbicidal effect rating: 6.0
GLXMA [4]; 0.0313-0.0320 kg/ha
  herbicidal effect rating: 5.0
GLXMA [4]; 0.0625-0.0640 kg/ha
  herbicidal effect rating: 4.0
GLXMA [4]; 0.1250 kg/ha
  herbicidal effect rating: 7.0
GLXMA [4]; 0.2500 kg/ha
  herbicidal effect rating: 9.0
GLXMA [4]; 0.5000 kg/ha
  herbicidal effect rating: 9.0
TRZAWR; 0.0157-0.0160 kg/ha
  herbicidal effect rating: 2.0
TRZAWR; 0.0313-0.0320 kg/ha
  herbicidal effect rating: 2.0
TRZAWR; 0.0625-0.0640 kg/ha
  herbicidal effect rating: 3.0
TRZAWR; 0.1250 kg/ha
  herbicidal effect rating: 3.0
TRZAWR; 0.2500 kg/ha
  herbicidal effect rating: 3.0
TRZAWR; 0.5000 kg/ha
  herbicidal effect rating: 4.0

## Cc1nsc2ccc(-n3c(=O)cc(C(F)(F)F)n(C)c3=O)cc12 [Compound 6, 1-Methyl-3-(3-methyl-1,2-benzisothiazol-5-yl)-6-(trifluoromethyl)-2,4(1H,3H)-pyrimidinedione]
ABUTH [1]; 0.0313-0.0320 kg/ha
  herbicidal effect rating: 9.0 and 4.5
ABUTH [1]; 0.0620-0.0630 kg/ha
  herbicidal effect rating: 9.0
ABUTH [1]; 0.1250 kg/ha
  herbicidal effect rating: 9.0
ABUTH [1]; 0.2500 kg/ha
  herbicidal effect rating: 9.0
ABUTH [1]; 0.5000 kg/ha
  herbicidal effect rating: 9.0
GLXMAW [5]
  herbicidal effect rating: 0.0
GLXMA [2]; 0.0156-0.0160 kg/ha
  herbicidal effect rating: 2.0
GLXMA [2]; 0.0313-0.0320 kg/ha
  herbicidal effect rating: 2.0
GLXMA [2]; 0.0620-0.0630 kg/ha
  herbicidal effect rating: 4.0
GLXMA [2]; 0.1250 kg/ha
  herbicidal effect rating: 7.0
GLXMA [2]; 0.2500 kg/ha
  herbicidal effect rating: 9.0
GLXMA [2]; 0.5000 kg/ha
  herbicidal effect rating: 9.0
IPOHE [6]
  herbicidal effect rating: 3.0
ORYSAT; 0.0156-0.0160 kg/ha
  herbicidal effect rating: 2.8 and 4.0
ORYSAT; 0.0313-0.0320 kg/ha
  herbicidal effect rating: 4.4 and 7.0
ORYSAT; 0.0620-0.0630 kg/ha
  herbicidal effect rating: 7.0
ORYSAT; 0.1250 kg/ha
  herbicidal effect rating: 8.0
ORYSAT; 0.2500 kg/ha
  herbicidal effect rating: 8.0
ORYSAT; 0.5000 kg/ha
  herbicidal effect rating: 9.0
ABUTH [3]; 0.0157-0.0160 kg/ha
  herbicidal effect rating: 5.7 and 5.0 and 8.0
ABUTH [3]; 0.0313-0.0320 kg/ha
  herbicidal effect rating: 9.0
ABUTH [3]; 0.0625-0.0640 kg/ha
  herbicidal effect rating: 9.0
ABUTH [3]; 0.1250 kg/ha
  herbicidal effect rating: 9.0
ABUTH [3]; 0.2500 kg/ha
  herbicidal effect rating: 9.0
ABUTH [3]; 0.5000 kg/ha
  herbicidal effect rating: 9.0
CHEAL; 0.0313-0.0320 kg/ha
  herbicidal effect rating: 6.5 and 5.0 and 9.0
CHEAL; 0.0625-0.0640 kg/ha
  herbicidal effect rating: 9.0 and 7.0
CHEAL; 0.1250 kg/ha
  herbicidal effect rating: 9.0
CHEAL; 0.2500 kg/ha
  herbicidal effect rating: 9.0
CHEAL; 0.5000 kg/ha
  herbicidal effect rating: 9.0
IPOHE [7]
  herbicidal effect rating: 9.0 and 5.0
ECHCG; 0.0313-0.0320 kg/ha
  herbicidal effect rating: 1.0 and 2.0
ECHCG; 0.0625-0.0640 kg/ha
  herbicidal effect rating: 3.0 and 1.5 and 2.0
ECHCG; 0.1250 kg/ha
  herbicidal effect rating: 7.0
ECHCG; 0.2500 kg/ha
  herbicidal effect rating: 6.0
ECHCG; 0.5000 kg/ha
  herbicidal effect rating: 7.0
GLXMAW [8]; 0.0157-0.0160 kg/ha
  herbicidal effect rating: 5.5 and 3.0
GLXMAW [8]; 0.0313-0.0320 kg/ha
  herbicidal effect rating: 5.5 and 3.8 and 7.0
GLXMAW [8]; 0.0625-0.0640 kg/ha
  herbicidal effect rating: 6.0 and 4.8 and 7.0
GLXMAW [8]; 0.1250 kg/ha
  herbicidal effect rating: 7.0
GLXMAW [8]; 0.2500 kg/ha
  herbicidal effect rating: 7.0
GLXMA [4]; 0.0157-0.0160 kg/ha
  herbicidal effect rating: 2.5 and 4.0
GLXMA [4]; 0.0313-0.0320 kg/ha
  herbicidal effect rating: 5.0 and 4.0
GLXMA [4]; 0.0625-0.0640 kg/ha
  herbicidal effect rating: 4.0
GLXMA [4]; 0.1250 kg/ha
  herbicidal effect rating: 6.0
GLXMA [4]; 0.2500 kg/ha
  herbicidal effect rating: 6.0
GLXMA [4]; 0.5000 kg/ha
  herbicidal effect rating: 7.0
TRZAWR; 0.0625-0.0640 kg/ha
  herbicidal effect rating: 3.0 and 1.5 and 2.0
TRZAWR; 0.1250 kg/ha
  herbicidal effect rating: 2.5
TRZAWR; 0.2500 kg/ha
  herbicidal effect rating: 5.0
TRZAWR; 0.5000 kg/ha
  herbicidal effect rating: 6.0
